Experimental data as given in PMC8453943 (Clinical Pharmacology in Drug Development, 2021).
Where two headings read alike, the source gives them in different places.

Key:
[1] = Dose proportionality, power model on pooled exposure data; assay type: in vivo, human; conditions: 40- to 160-mg dose range, pooled parts 1-3
[2] = Part 3 relative bioavailability of capsule B vs capsule A; assay type: in vivo, human
[3] = in vitro assays; cited from earlier work
[4] = Safety and tolerability assessments; assay type: in vivo, human
[5] = repeat dosing, animals; dermal and gastrointestinal toxicities; cited from earlier work
[6] = Part 2 effect of a low-fat meal on PK; assay type: in vivo, human; conditions: for AUC(0-inf) / Cmax / Tmax: human, plasma, oral; for Tmax: Median (range)
[7] = Part 1 single-ascending-dose study, urine PK; assay type: in vivo, human; conditions: within 48 hours, across all dose groups
CYP3A4/5 = conditions: recombinant human CYPs, in vitro; cited from earlier work
[8] = preclinical studies; cited from earlier work
[9] = cited from earlier work
[10] = cited from earlier work; remark: listed apart in the source
[11] = Part 1 single-ascending-dose study, plasma PK; assay type: in vivo, human; conditions: for Tmax: human, plasma, po; for CL/F, Geometric mean (% CV) / CL/F, Mean (SD): fasted
[12] = part 3, 160 mg, fasted, capsule B (test) vs capsule A (reference)
[13] = AEs in ≥10% of volunteers in any part
[14] = part 1, overall (N = 40, includes pooled placebo)
[15] = part 2, 120 mg, low-fat meal (n = 6)
[16] = part 2, 160 mg, fasted (n = 10)
[17] = part 2, 160 mg, low-fat meal (n = 10)
[18] = part 3, mobocertinib 160 mg, overall (N = 13)
[19] = 120 mg, Geometric mean (% CV), part 2, 120 mg, fasted
[20] = 120 mg, Geometric mean (% CV), part 2, 120 mg, low-fat meal
[21] = 120 mg, Mean (SD), part 2, 120 mg, fasted
[22] = 120 mg, Mean (SD), part 2, 120 mg, low-fat meal
[23] = 160 mg, Geometric mean (% CV), part 2, 160 mg, fasted
[24] = 160 mg, Geometric mean (% CV), part 2, 160 mg, low-fat meal
[25] = 160 mg, Mean (SD), part 2, 160 mg, fasted
[26] = 160 mg, Mean (SD), part 2, 160 mg, low-fat meal
[27] = part 2, 120 mg, low-fat meal (test) vs fasted (reference)
[28] = part 1, 120 mg single oral dose
[29] = part 1, 160 mg single oral dose

C=CC(=O)Nc1cc(Nc2ncc(C(=O)OC(C)C)c(-c3cn(C)c4ccccc34)n2)c(OC)cc1N(C)CCN(C)C [Mobocertinib]
Slope (95% CI) of regression of log mobocertinib AUC∞ vs log dose [1]: 1.20 (0.93‐1.46)
Tmax ([2]; human, plasma, oral, 160 mg): 5 to 6 h
AUC∞, LS Geometric Mean Ratio (90%CI) [2, 12]: 0.96
Cmax, LS Geometric Mean Ratio (90%CI) [2, 12]: 0.93
Genotoxicity [3]: no evidence of genotoxicity
Diarrhea [4, 13]: 10.0%
Flatulence [4, 13]: 12.5%
Soft feces [4, 13]: 12.5%
Serious AEs ([4]; all parts): No serious AEs were reported
Volunteers who experienced AEs ([4]; part 1 (includes pooled placebo)): 48%
AE leading to discontinuation ([4]; part 1, 20 mg (n = 6)): 0 n (%)
Any AE ([4]; part 1, 20 mg (n = 6)): 2 (33) n (%)
Grade 1 AE ([4]; part 1, 20 mg (n = 6)): 2 (33) n (%)
Grade 2 AE ([4]; part 1, 20 mg (n = 6)): 0 n (%)
Grade ≥3 AE ([4]; part 1, 20 mg (n = 6)): 0 n (%)
Treatment-related AE ([4]; part 1, 20 mg (n = 6)): 1 (17) n (%)
AE leading to discontinuation ([4]; part 1, 40 mg (n = 6)): 0 n (%)
Any AE ([4]; part 1, 40 mg (n = 6)): 3 (50) n (%)
Grade 1 AE ([4]; part 1, 40 mg (n = 6)): 2 (33) n (%)
Grade 2 AE ([4]; part 1, 40 mg (n = 6)): 1 (17) n (%)
Grade ≥3 AE ([4]; part 1, 40 mg (n = 6)): 0 n (%)
Treatment-related AE ([4]; part 1, 40 mg (n = 6)): 0 n (%)
AE leading to discontinuation ([4]; part 1, 80 mg (n = 6)): 0 n (%)
Any AE ([4]; part 1, 80 mg (n = 6)): 4 (67) n (%)
Grade 1 AE ([4]; part 1, 80 mg (n = 6)): 3 (50) n (%)
Grade 2 AE ([4]; part 1, 80 mg (n = 6)): 1 (17) n (%)
Grade ≥3 AE ([4]; part 1, 80 mg (n = 6)): 0 n (%)
Treatment-related AE ([4]; part 1, 80 mg (n = 6)): 3 (50) n (%)
AE leading to discontinuation ([4]; part 1, 120 mg (n = 6)): 0 n (%)
Any AE ([4]; part 1, 120 mg (n = 6)): 3 (50) n (%)
Grade 1 AE ([4]; part 1, 120 mg (n = 6)): 1 (17) n (%)
Grade 2 AE ([4]; part 1, 120 mg (n = 6)): 2 (33) n (%)
Grade ≥3 AE ([4]; part 1, 120 mg (n = 6)): 0 n (%)
Treatment-related AE ([4]; part 1, 120 mg (n = 6)): 0 n (%)
AE leading to discontinuation ([4]; part 1, 160 mg (n = 6)): 0 n (%)
Any AE ([4]; part 1, 160 mg (n = 6)): 5 (83) n (%)
Grade 1 AE ([4]; part 1, 160 mg (n = 6)): 4 (67) n (%)
Grade 2 AE ([4]; part 1, 160 mg (n = 6)): 1 (17) n (%)
Grade ≥3 AE ([4]; part 1, 160 mg (n = 6)): 0 n (%)
Treatment-related AE ([4]; part 1, 160 mg (n = 6)): 3 (50) n (%)
Decrease in serum creatine kinase ([4]; part 1, 20-mg dose group): –26.8 U/L
Decrease in serum creatine kinase ([4]; part 1, 160-mg group): –69.0 U/L
AE leading to discontinuation [4, 14]: 0 n (%)
Any AE [4, 14]: 19 (48) n (%)
Grade 1 AE [4, 14]: 14 (35) n (%)
Grade 2 AE [4, 14]: 5 (13) n (%)
Grade ≥3 AE [4, 14]: 0 n (%)
Treatment-related AE [4, 14]: 9 (23) n (%)
Volunteers who experienced AEs ([4]; part 2): 75%
AE leading to discontinuation ([4]; part 2, 120 mg, fasted (n = 6)): 0 n (%)
Any AE ([4]; part 2, 120 mg, fasted (n = 6)): 3 (50) n (%)
Grade 1 AE ([4]; part 2, 120 mg, fasted (n = 6)): 2 (33) n (%)
Grade 2 AE ([4]; part 2, 120 mg, fasted (n = 6)): 1 (17) n (%)
Grade ≥3 AE ([4]; part 2, 120 mg, fasted (n = 6)): 0 n (%)
Treatment-related AE ([4]; part 2, 120 mg, fasted (n = 6)): 3 (50) n (%)
Treatment-related AE, Grade ≥3 ([4]; part 2, 120 mg, fasted (n = 6)): 0 n (%)
AE leading to discontinuation [4, 15]: 0 n (%)
Any AE [4, 15]: 3 (50) n (%)
Grade 1 AE [4, 15]: 2 (33) n (%)
Grade 2 AE [4, 15]: 0 n (%)
Grade ≥3 AE [4, 15]: 1 (17) n (%)
Treatment-related AE [4, 15]: 2 (33) n (%)
Treatment-related AE, Grade ≥3 [4, 15]: 0 n (%)
AE leading to discontinuation [4, 16]: 0 n (%)
Any AE [4, 16]: 5 (50) n (%)
Grade 1 AE [4, 16]: 5 (50) n (%)
Grade 2 AE [4, 16]: 0 n (%)
Grade ≥3 AE [4, 16]: 0 n (%)
Treatment-related AE [4, 16]: 5 (50) n (%)
Treatment-related AE, Grade ≥3 [4, 16]: 0 n (%)
AE leading to discontinuation [4, 17]: 0 n (%)
Any AE [4, 17]: 7 (70) n (%)
Grade 1 AE [4, 17]: 7 (70) n (%)
Grade 2 AE [4, 17]: 0 n (%)
Grade ≥3 AE [4, 17]: 0 n (%)
Treatment-related AE [4, 17]: 4 (40) n (%)
Treatment-related AE, Grade ≥3 [4, 17]: 0 n (%)
AE leading to discontinuation ([4]; part 2, overall (N = 16)): 0 n (%)
Any AE ([4]; part 2, overall (N = 16)): 12 (75) n (%)
Grade 1 AE ([4]; part 2, overall (N = 16)): 11 (69) n (%)
Grade 2 AE ([4]; part 2, overall (N = 16)): 0 n (%)
Grade ≥3 AE ([4]; part 2, overall (N = 16)): 1 (6) n (%)
Treatment-related AE ([4]; part 2, overall (N = 16)): 8 (50) n (%)
Treatment-related AE, Grade ≥3 ([4]; part 2, overall (N = 16)): 0 n (%)
Volunteers who experienced AEs ([4]; part 3): 46%
AE leading to discontinuation [4, 18]: 1 (8) n (%)
Grade 1 AE [4, 18]: 5 (39) n (%)
Grade 2 AE [4, 18]: 1 (8) n (%)
Grade ≥3 AE [4, 18]: 0 n (%)
Treatment-related AE [4, 18]: 2 (15) n (%)
Volunteers with AEs [4, 18]: 6 (46) n (%)
Single doses tolerated in healthy adult volunteers ([4]; single oral dose): up to 160 mg
Maximum tolerated dose [5]: 10 mg/kg
AUC(0-inf) [6, 19]: 526 ng·h/mL
AUC(0-inf) [6, 20]: 534 ng·h/mL
AUC(0-inf) [6, 21]: 587 ng·h/mL
AUC(0-inf) [6, 22]: 578 ng·h/mL
Cmax [6, 19]: 31.2 ng/mL
Cmax [6, 20]: 27.5 ng/mL
Cmax [6, 21]: 35.5 ng/mL
Cmax [6, 22]: 29.5 ng/mL
Tmax ([6]; 120 mg, part 2, 120 mg, fasted): 4 h
Tmax ([6]; 120 mg, part 2, 120 mg, low-fat meal): 6 h
AUC(0-inf) [6, 23]: 743 ng·h/mL
AUC(0-inf) [6, 24]: 706 ng·h/mL
AUC(0-inf) [6, 25]: 862 ng·h/mL
AUC(0-inf) [6, 26]: 768 ng·h/mL
Cmax [6, 23]: 41 ng/mL
Cmax [6, 24]: 39.5 ng/mL
Cmax [6, 25]: 45.8 ng/mL
Cmax [6, 26]: 43 ng/mL
Tmax ([6]; 160 mg, part 2, 160 mg, fasted): 6 h
Tmax ([6]; 160 mg, part 2, 160 mg, low-fat meal): 6 h
Effect of a low-fat meal on PK ([6]; mobocertinib and its active metabolites): did not affect the PK
AUC∞, Geometric LS Mean Ratio (90%CI) [6, 27]: 1.02 (0.90‐1.15)
Cmax, Geometric LS Mean Ratio (90%CI) [6, 27]: 0.88 (0.71‐1.09)
Cmax, Geometric LS Mean Ratio (90%CI) ([6]; part 2, 160 mg, low-fat meal (test) vs fasted (reference)): 0.96
Time for which mean plasma concentrations were quantifiable ([6]; part 2, 120 and 160 mg, low-fat meal and fasted): up to 168 hours
Administered mobocertinib dose excreted unchanged in urine [7]: < 1.2%
Percent contribution of CYP3A4/5 to metabolism (CYP3A4/5): > 90%
Route of elimination [8]: eliminated almost completely through feces
Accumulation ratio of AUC0-24, cycle 2 day 1 over cycle 1 day 1 ([9]; 160 mg once daily, repeat dosing, ref NCT02716116): 1.03
Maximum tolerated dose ([9]; once daily, patients): 160 mg
Permeability [10]: high permeability
Solubility [10]: high solubility
Tmax [11]: 4 to 6 h
Tmax ([11]; 80 mg): 4 h
Tmax ([11]; 120 mg): 6 h
Tmax ([11]; 160 mg): 6 h
Time for which analyte was quantifiable in plasma ([11]; part 1, 20 mg mobocertinib cohort): up to 72 hours
CL/F, Geometric mean (% CV) ([11]; part 1, 20 mg single oral dose): 314 (11.9) L/h
CL/F, Mean (SD) ([11]; part 1, 20 mg single oral dose): 316 (37.5) L/h
Time for which analyte was quantifiable in plasma ([11]; part 1, 40 mg mobocertinib cohort): ≤ 96 h
CL/F, Geometric mean (% CV) ([11]; part 1, 40 mg single oral dose): 249 (49.5) L/h
CL/F, Mean (SD) ([11]; part 1, 40 mg single oral dose): 283 (140.1) L/h
Time for which analyte was quantifiable in plasma ([11]; part 1, 80 mg mobocertinib cohort): ≤ 96 h
CL/F, Geometric mean (% CV) ([11]; part 1, 80 mg single oral dose): 312 (72.0) L/h
CL/F, Mean (SD) ([11]; part 1, 80 mg single oral dose): 378 (272.2) L/h
Time for which analyte was quantifiable in plasma ([11]; part 1, 120 mg mobocertinib cohort): ≤ 96 h
CL/F, Geometric mean (% CV) [11, 28]: 263 (56.9) L/h
CL/F, Mean (SD) [11, 28]: 292 (166.2) L/h
Time for which analyte was quantifiable in plasma ([11]; part 1, 160 mg mobocertinib cohort): ≤ 168 h
CL/F, Geometric mean (% CV) [11, 29]: 157 (33.2) L/h
CL/F, Mean (SD) [11, 29]: 168 (55.7) L/h
